Measurements published in patent publication EP4095134A1, “POLYCYCLIC COMPOUNDS FOR THE TREATMENT OF NEUROLOGICAL INDICATIONS” (UCL Business Ltd, priority 2021, dated 2022).

Target: T1, P2Y1 receptor (Homo sapiens, UniProt P47900)
T1 construct: expressed in transfected cells
Assay: P2Y1 IP1 accumulation HTRF assay, antagonism of agonist MRS2365 in stably transfected cells
Format: cell-based
Conditions: racemic; 5nM MRS2365; values rounded to nearest whole number; N >= 4
Description: IC50 values were determined using a cell based assay in stably transfected cells overexpressing the P2Y1 receptor. The assay system is a […] (HTRF) assay measuring accumulation of the intracellular messenger inositol monophosphate (IP1), generated intracellularly following activation of P2Y1. Activity of test compounds was generated by measuring antagonism of the increase in IP1 generated by addition of a selective P2Y1 agonist, MRS2365.
P2Y1 overexpressing cells were maintained in T175 flasks. The day before the assay, these cells were split and 20µl cell suspension transferred to each well of white 384-well assay plates at a cell density of 0.5x10^6 cells/mL. Plates were pulse centrifuged, then incubated overnight at 37°C / 5% CO2 prior to assay.
On day of assay, medium was removed from cells and replaced with stimulation buffer. Compounds were prepared in 100% DMSO for addition to cells using the Tecan D300e digital dispenser; compounds were prepared in cassette heads and added directly to wells in the required concentration range, to give a 10-point concentration response curve from 10µM with semi-log dilutions and a final DMSO concentration of 0.1%. Positive control antagonist curves with standard compounds were included on each plate. Plates were incubated with antagonists for 1 hour prior to addition of 5nM of the agonist MRS2365, dispensed using a Bravo liquid handler. Following agonist addition, plates were incubated for 60 minutes prior to assay. Both incubations were carried out at 37°C / 5% CO2.
For the assay, IP1 accumulation was quantified using the IPOne kit according to manufacturer's instructions. In short, a standard curve was prepared for IP 1 quantification, and cells lysed using kit lysis buffer. Assay reagents were added to the lysates, and incubated for 1 hour at room temperature without spinning or shaking. Plates were analysed on a BMG Pherastar plate reader, and IP1 signal generated in cells interpolated from the standard curve.
For all reported results, N is greater than or equal to 4. An individual N refers to one assay run with a single weighing of compound. A minimum of two assay runs were performed for each of two independent weighings of compound. Results (racemic)

T1 sequence (P47900 whole entry): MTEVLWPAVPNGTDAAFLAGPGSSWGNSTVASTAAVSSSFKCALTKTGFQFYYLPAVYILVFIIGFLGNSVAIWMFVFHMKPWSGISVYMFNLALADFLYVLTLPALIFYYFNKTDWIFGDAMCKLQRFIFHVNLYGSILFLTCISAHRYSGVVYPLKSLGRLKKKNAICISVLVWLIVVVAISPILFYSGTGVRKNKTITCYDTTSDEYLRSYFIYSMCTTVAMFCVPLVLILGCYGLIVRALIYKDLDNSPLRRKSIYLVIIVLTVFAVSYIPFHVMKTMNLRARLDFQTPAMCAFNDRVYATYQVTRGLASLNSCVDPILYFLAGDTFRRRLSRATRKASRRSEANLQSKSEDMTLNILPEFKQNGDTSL

Row | IC50 | Structure (SMILES)
1 | 220 nM | O=C(Nc1ccc(OC(F)(F)F)cc1)Nc1cccnc1Oc1c(F)cccc1C1(C(F)(F)F)CCO1 (racemic) [S37]
2 | 248 nM | O=C(Nc1ccc(C(F)(F)F)cn1)Nc1cccnc1Oc1ccccc1C1(C(F)(F)F)CCO1 (racemic) [S38, 1-(2-(2-(2-(trifluoromethyl)oxetan-2-yl)phenoxy)pyridin-3-yl)-3-(5-(trifluoromethyl)pyridin-2-yl)urea]
3 | 259 nM | O=C(Nc1ccc(C(F)F)cc1)Nc1cccnc1Oc1ccccc1C1(C(F)(F)F)CCO1 (racemic) [S39, 1-(4-(difluoromethyl)phenyl)-3-(2-(2-(2-(trifluoromethyl)oxetan-2-yl)phenoxy)pyridin-3-yl)urea]
4 | 278 nM | O=C(Nc1cc(OC(F)(F)F)ccc1F)Nc1cccnc1Oc1ccc(F)cc1C1(C(F)(F)F)CCO1 (racemic) [S40, 1-(2-(4-fluoro-2-(2-(trifluoromethyl)oxetan-2-yl)phenoxy)pyridin-3-yl)-3-(2-fluoro-5-(trifluoromethoxy)phenyl)urea]
5 | 287 nM | Cc1ccc(NC(=O)Nc2ccc3c(c2)OC(F)(F)O3)c(Oc2ccc(F)cc2C2(C(F)(F)F)CCO2)n1 (racemic) [S41, 1-(2,2-difluorobenzo[d][1,3]dioxol-5-yl)-3-(2-(4-fluoro-2-(2-(trifluoromethyl)oxetan-2-yl)phenoxy)-6-methylpyridin-3-yl)urea]
6 | 324 nM | Cc1ccc(NC(=O)Nc2ccccc2)c(Oc2ccc(F)cc2C2(C(F)(F)F)CCO2)n1 (racemic) [S42, 1-(2-(4-fluoro-2-(2-(trifluoromethyl)oxetan-2-yl)phenoxy)-6-methylpyridin-3-yl)-3-phenylurea]
7 | 334 nM | O=C(Nc1ccc(OC(F)F)cc1)Nc1cccnc1Oc1ccccc1C1(C(F)(F)F)CCO1 (racemic) [S43]
8 | 348 nM | COc1ccc(F)c(NC(=O)Nc2ccc(C)nc2Oc2ccccc2C2(C(F)(F)F)CCO2)c1 (racemic) [S44, 1-(2-fluoro-5-methoxyphenyl)-3-(6-methyl-2-(2-(2-(trifluoromethyl)oxetan-2-yl)phenoxy)pyridin-3-yl)urea]
9 | 384 nM | O=C(Nc1ccc(Cl)cn1)Nc1cccnc1Oc1ccccc1C1(C(F)(F)F)CCO1 (racemic) [S46, 1-(5-chloropyridin-2-yl)-3-(2-(2-(2-(trifluoromethyl)oxetan-2-yl)phenoxy)pyridin-3-yl)urea]
10 | 392 nM | COc1ccc(F)c(NC(=O)Nc2cccnc2Oc2ccccc2C2(C(F)(F)F)CCO2)c1 (racemic) [S47, 1-(2-fluoro-5-methoxyphenyl)-3-(2-(2-(2-(trifluoromethyl)oxetan-2-yl)phenoxy)pyridin-3-yl)urea]
11 | 408 nM | Cc1ccc(NC(=O)Nc2ccc(F)cc2)c(Oc2ccc(F)cc2C2(C(F)(F)F)CCO2)n1 (racemic) [S48, 1-(2-(4-fluoro-2-(2-(trifluoromethyl)oxetan-2-yl)phenoxy)-6-methylpyridin-3-yl)-3-(4-fluorophenyl)urea]
12 | 419 nM | O=C(Nc1cccc(OC(F)(F)F)c1)Nc1cccnc1Oc1ccc(F)cc1C1(C(F)(F)F)CCO1 (racemic) [S49, 1-(2-(4-fluoro-2-(2-(trifluoromethyl)oxetan-2-yl)phenoxy)pyridin-3-yl)-3-(3-(trifluoromethoxy)phenyl)urea]
13 | 465 nM | O=C(Nc1ccc(OC(F)(F)F)cn1)Nc1cccnc1Oc1ccccc1C1(C(F)(F)F)CCO1 (racemic) [S50, 1-(5-(trifluoromethoxy)pyridin-2-yl)-3-(2-(2-(2-(trifluoromethyl)oxetan-2-yl)phenoxy)pyridin-3-yl)urea]
14 | 473 nM | COc1ccc(NC(=O)Nc2cccnc2Oc2ccccc2C2(C(F)(F)F)CCO2)c(F)c1 (racemic) [S51, 1-(2-fluoro-4-methoxyphenyl)-3-(2-(2-(2-(trifluoromethyl)oxetan-2-yl)phenoxy)pyridin-3-yl)urea]
15 | 500 nM | [2H]C([2H])([2H])Oc1ccc(NC(=O)Nc2cccnc2Oc2ccccc2C2(C(F)(F)F)CCO2)c(F)c1 (racemic) [S52, 1-(2-fluoro-4-(methoxy-d3)phenyl)-3-(2-(2-(2-(trifluoromethyl)oxetan-2-yl)phenoxy)pyridin-3-yl)urea]
16 | 522 nM | O=C(Nc1ccc(F)cc1)Nc1cccnc1Oc1ccccc1C1(C(F)(F)F)CCO1 (racemic) [S53, 1-(4-fluorophenyl)-3-(2-(2-(2-(trifluoromethyl)oxetan-2-yl)phenoxy)pyridin-3-yl)urea]
17 | 549 nM | Cc1ccc(NC(=O)Nc2ccc(F)cn2)c(Oc2ccc(F)cc2C2(C(F)(F)F)CCO2)n1 (racemic) [S54, 1-(2-(4-fluoro-2-(2-(trifluoromethyl)oxetan-2-yl)phenoxy)-6-methylpyridin-3-yl)-3-(5-fluoropyridin-2-yl)urea]
18 | 560 nM | COc1ccc(NC(=O)Nc2cccnc2Oc2ccccc2C2(C(F)(F)F)CCO2)cc1F (racemic) [S55, 1-(3-fluoro-4-methoxyphenyl)-3-(2-(2-(2-(trifluoromethyl)oxetan-2-yl)phenoxy)pyridin-3-yl)urea]
19 | 587 nM | Cc1ccc(NC(=O)Nc2ccc(C#N)cc2F)c(Oc2ccc(F)cc2C2(C(F)(F)F)CCO2)n1 (racemic) [S56, 1-(4-cyano-2-fluorophenyl)-3-(2-(4-fluoro-2-(2-(trifluoromethyl)oxetan-2-yl)phenoxy)-6-methylpyridin-3-yl)urea]
20 | 589 nM | COc1ccc(F)c(NC(=O)Nc2cccnc2Oc2ccc(F)cc2C2(C(F)(F)F)CCO2)c1 (racemic) [S57, 1-(2-(4-fluoro-2-(2-(trifluoromethyl)oxetan-2-yl)phenoxy)pyridin-3-yl)-3-(2-fluoro-5-methoxyphenyl)urea]
21 | 639 nM | Cc1ncc(NC(=O)Nc2ccc(Cl)cc2F)c(Oc2ccccc2C2(C(F)(F)F)CCO2)n1 (racemic) [S58]
22 | 644 nM | Cc1ncc(NC(=O)Nc2ccc(OC(F)(F)F)cc2)c(Oc2ccccc2C2(C(F)(F)F)CCO2)n1 (racemic) [S59, 1-(2-methyl-4-(2-(2-(trifluoromethyl)oxetan-2-yl)phenoxy)pyrimidin-5-yl)-3-(4-(trifluoromethoxy)phenyl)urea]
23 | 735 nM | O=C(Nc1ccccc1)Nc1cccnc1Oc1ccccc1C1(C(F)(F)F)CCO1 (racemic) [S60, 1-phenyl-3-(2-(2-(2-(trifluoromethyl)oxetan-2-yl)phenoxy)pyridin-3-yl)urea]
24 | 768 nM | O=C(Nc1cc2c(cc1F)OCO2)Nc1cccnc1Oc1ccccc1C1(C(F)(F)F)CCO1 (racemic) [S61, 1-(6-fluorobenzo[d][1,3]dioxol-5-yl)-3-(2-(2-(2-(trifluoromethyl)oxetan-2-yl)phenoxy)pyridin-3-yl)urea]
25 | 807 nM | O=C(Nc1ccc(CN2CC(F)(F)C2)cc1)Nc1cccnc1Oc1ccccc1C1(C(F)(F)F)CCO1 (racemic) [S62, 1-(4-((3,3-difluoroazetidin-1-yl)methyl)phenyl)-3-(2-(2-(2-(trifluoromethyl)oxetan-2-yl)phenoxy)pyridin-3-yl)urea]

Row | Structure (SMILES) | IC50
26 | O=C(Nc1ccc(OC2CC(F)(F)C2)cc1)Nc1cccnc1Oc1ccccc1C1(C(F)(F)F)CCO1 (racemic) [S36, 1-(4-(3,3-difluorocyclobutoxy)phenyl)-3-(2-(2-(2-(trifluoromethyl)oxetan-2-yl)phenoxy)pyridin-3-yl)urea] | 207 nM
27 | Cc1ncc(NC(=O)Nc2ccc(OC(F)(F)F)cc2F)c(Oc2ccccc2C2(C(F)(F)F)CCO2)n1 (racemic) [S45] | 382 nM
